According to patent US20260207621A1 (Vividion Therapeutics, Inc., priority 2022, published 2026):

Tests used:
KEAP1 C151 = biological target: T1, KEAP1 C151 (Homo sapiens, UniProt Q14145); assay: Nrf2 TMT measurement: in vitro TE50 for KEAP1 C151 (IA-DTB competition, targeted TMT mass spectrometry) in MDA-MB-468 cell lysate; assay type: binding; conditions: in vitro target engagement of KEAP1 C151, targeted TMT, read-out: KEAP1_C151 TE50
T1 construct: treating 500 μg of cell lysate generated from MDA-MB-468 breast cancer cells with DMSO or compound; endogenous in cells; host or cells: MDA-MB-468 breast cancer cell lysate
Description: In vitro TE50 values for KEAP_C151 were obtained by treating 500 μg of cell lysate generated from MDA-MB-468 breast cancer cells with DMSO or compound for 1 hour at room temperature followed by the addition of 200 μM IA-DTB (in DMSO) for one hour at room temperature. Samples were then precipitated by the addition of 8× ice cold acetonitrile and incubated at −80° C. for two hours. Protein was then pelleted by centrifugation (4,200 RPM, 45 min, 4° C.). The pelleted material was resuspended in 9M Urea, 50 mM ammonium bicarbonate and proteins were reduced and alkylated by the addition of DTT and iodoacetamide (10 and 30 mM, respectively). Following reduction and alkylation, samples were exchanged into 2M urea (Zeba spin desalting plates, Thermo Fisher) and digested with Trypsin. IA-DTB labeled peptides were isolated with streptavidin agarose resin. Enriched peptides were eluted by the addition of 50% acetonitrile (ACN) 0.1% Formic Acid (FA) and dried in a SpeedVac vacuum concentrator.
Dried peptides were resuspended in 0.2 M EPPS pH 8.5 and treated with 6.5 μL of 11-plex tandem mass tag (TMT) (8.3 μg/μL in dry ACN) for 2 hours at room temperature. Reactions were quenched by the addition of 6.5 μL of 5% Hydroxylamine. Samples were then combined and desalted on a Biotage Evolute express ABN plate (600-0010-PX01).
Targeted TMT. Targeted TMT measurements were collected using an Orbitrap LumosTribrid Mass Spectrometer (Thermo Scientific) coupled to an UltiMate 3000 Series Rapid Separation LC system and autosampler (Thermo Scientific Dionex). Peptides were eluted onto a custom C18 capillary analytical column (75-μm inner diameter fused silica, packed with Acclaim PepMap C18 resin (Thermo Scientific)) using an Acclaim PepMap 100 (Thermo 164535) loading column, and separated at a flow rate of 1.0 μl min−1. Data were acquired using a specific MS3-based TMT method targeting the peptide containing KEAP1 C151 (C(+324.2)[…], +3 charge state) where MS2 peptide fragmentation is triggered upon detection of the peptide precursor ion. Subsequent MS3 analysis was then performed using pre-selected peptide fragment ions that were isolated for fragmentation using synchronous precursor selection. RAW files were converted to MZXML format and searched with the SEQUEST algorithm using the MassPike software package. TMT quantitation was performed with a filter requiring at least ten summed signal-to-noise for control channels. Quantified signals were used for dose response curve-fitting and IC50 calculation using R's drc package.

Nrf2 = Nrf2 antagonism assay: ARE luciferase reporter in KYSE-70 cells; assay type: cell-based; conditions: Homo sapiens, KYSE-70, KYSE-70 cells, positive Imax corresponds to Nrf2 antagonism, read-out: KYSE70 Cellular ARE Luciferase Imax (%)
Summary of the method: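 Dose-response curves give IC50 and Imax, with positive Imax read as Nrf2 antagonism, i.e. reduced luciferase signal. Reporter cells are Nrf2-high KYSE-70 (Nrf2 W24C mutant) bearing ARE-controlled luciferase. Antagonists are proposed to act at KEAP1 C151, speeding Nrf2 degradation.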

T1 sequence (Q14145 whole entry): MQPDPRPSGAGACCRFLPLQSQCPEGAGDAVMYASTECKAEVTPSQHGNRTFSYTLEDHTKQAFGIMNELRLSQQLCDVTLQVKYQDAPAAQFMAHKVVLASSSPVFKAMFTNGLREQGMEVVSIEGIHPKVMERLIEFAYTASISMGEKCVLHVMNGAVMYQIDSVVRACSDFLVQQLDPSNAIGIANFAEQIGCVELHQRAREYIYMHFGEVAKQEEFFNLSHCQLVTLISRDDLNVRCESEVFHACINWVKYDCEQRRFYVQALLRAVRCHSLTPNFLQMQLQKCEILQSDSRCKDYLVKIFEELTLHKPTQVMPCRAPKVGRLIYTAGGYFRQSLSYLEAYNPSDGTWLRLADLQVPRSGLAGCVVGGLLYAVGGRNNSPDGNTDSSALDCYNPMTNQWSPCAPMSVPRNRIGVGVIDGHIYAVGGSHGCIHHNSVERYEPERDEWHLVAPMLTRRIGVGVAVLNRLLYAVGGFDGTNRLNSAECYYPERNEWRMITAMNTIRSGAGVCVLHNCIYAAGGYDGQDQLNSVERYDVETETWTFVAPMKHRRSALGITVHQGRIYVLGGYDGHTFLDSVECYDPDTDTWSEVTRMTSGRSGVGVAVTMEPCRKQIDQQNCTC

Row | SMILES | IC50 (KEAP1 C151) [µM] | Emax (Nrf2) [%]
1 | C=CC(=O)N1CCS(=O)(=O)CC1c1cc(Cl)cc(-c2cc(C)ncn2)c1 (single isomer, unassigned) [Compound 52, 1-(3-(3-chloro-5-(6-methylpyrimidin-4-yl)phenyl)-1,1-dioxidothiomorpholino)prop-2-en-1-one] | 0.174 | 80
2 | C=CC(=O)N1CCOCC1c1cc(Cl)cc(-c2cnn(C)c(=O)c2)c1 (single isomer, unassigned) [Compound 53, 5-(3-(4-acryloylmorpholin-3-y1)-5-chlorophenyl)-2-methylpyridazin-3(2H)-one] | 0.066 | 55
3 | C=CC(=O)N1CCOCC1c1cc(Cl)cc(-c2cnccn2)c1 (single isomer, unassigned) [Compound 54, 1-(3-(3-chloro-5-(pyrazin-2-yl)phenyl)morpholino)prop-2-en-1-one] | 0.049 | 70
4 | C=CC(=O)N1CCOC[C@H]1c1cc(Cl)cc(-c2ncnc3[nH]cnc23)c1 (single isomer, unassigned) [Compound 58] | 0.0305 | 95
5 | C=CC(=O)N1CCOCC1c1cc(Cl)cc(-c2cc(C(N)=O)ccc2F)c1 (single isomer, unassigned) [Compound 60, 3′-(4-acryloylmorpholin-3-yl)-5′-chloro-6-fluoro-[1,1′-biphenyl]-3-carboxamide] | 0.058 | 70
6 | C=CC(=O)N1CC(C)(C)OC[C@H]1c1cc(Cl)cc(-c2ccc(F)c(C(N)=O)c2)c1 (single isomer, unassigned) [Compound 61] | 0.0513 | 89
7 | C=CC(=O)N1CCOC[C@H]1c1cc(Cl)cc(-c2ncn(CC(N)=O)n2)c1 (single isomer, unassigned) [Compound 62] | 0.22 | 55
8 | C=CC(=O)N1CCOCC1c1cc(Cl)cc(-c2ccn3ccnc3n2)c1 (single isomer, unassigned) [Compound 63, 1-(3-(3-chloro-5-(imidazo[1,2-a]pyrimidin-7-yl)phenyl)morpholino)prop-2-en-1-one] | 0.0033 | 63
9 | C=CC(=O)N1CCOCC1c1cc(Cl)nc(-c2ccn3ccnc3c2)c1 (single isomer, unassigned) [Compound 64, 1-(3-(2-chloro-6-(imidazo[1,2-a]pyridin-7-yl)pyridin-4-yl)morpholino)prop-2-en-1-one] | 0.001 | 75
10 | C=CC(=O)N1CCOCC1c1cc(Cl)nc(-c2ccc(F)c(C(N)=O)c2)c1 (single isomer, unassigned) [Compound 65, 5-(4-(4-acryloylmorpholin-3-yl)-6-chloropyridin-2-y1)-2-fluorobenzamide] | 0.024 | 88
11 | C=CC(=O)N1CC(C)(C)OC[C@H]1c1cc(Cl)cc(-c2ncnc(N)n2)c1 (single isomer, unassigned) [Compound 66] | 0.023 | 93
12 | C=CC(=O)N1CCOCC1c1cc(C#N)cc(-c2ccc(F)c(C(N)=O)c2)c1 (single isomer, unassigned) [Compound 67, 3′-(4-acryloylmorpholin-3-yl)-5′-cyano-4-fluoro-[1,1′-biphenyl]-3-carboxamide] | 0.019 | 73
13 | C=CC(=O)N1CCOCC1c1cc(Cl)cc(-c2cnc3cncn3c2)c1 (single isomer, unassigned) [Compound 68, 1-(3-(3-chloro-5-(imidazo[1,5-a]pyrimidin-3-yl)phenyl)morpholino)prop-2-en-1-one] | 0.09 | 72
14 | C=CC(=O)N1CC(C)(C)OCC1c1cc(Cl)nc(-c2ccc(F)c(C(N)=O)c2)c1 (single isomer, unassigned) [Compound 69, 5-(4-(4-acryloyl-6,6-dimethylmorpholin-3-yl)-6-chloropyridin-2-yl)-2-fluorobenzamide] | 0.0884 | 82
15 | C=CC(=O)N1CCOCC1c1cc(Cl)cc(-c2ccc(C(N)=O)cc2)c1 (single isomer, unassigned) [Compound 70, 3′-(4-acryloylmorpholin-3-yl)-5′-chloro-[1,1′-biphenyl]-4-carboxamide] | 0.054 | 81
16 | C=CC(=O)N1CCOCC1c1cc(Cl)cc(-c2cccc(C(N)=O)c2)c1 (single isomer, unassigned) [Compound 71, 3′-(4-acryloylmorpholin-3-yl)-5′-chloro-[1,1′-biphenyl]-3-carboxamide] | 0.03 | 78
17 | C=CC(=O)N1CCOCC1c1cc(Cl)cc(-c2cc(F)cc(C(N)=O)c2)c1 (single isomer, unassigned) [Compound 72, 3′-(4-acryloylmorpholin-3-yl)-5′-chloro-5-fluoro-[1,1′-biphenyl]-3-carboxamide] | 0.027 | 80
18 | C=CC(=O)N1CCOCC1c1cc(Cl)cc(-c2cccc(C(N)=O)c2F)c1 (single isomer, unassigned) [Compound 73, 3′-(4-acryloylmorpholin-3-yl)-5′-chloro-2-fluoro-[1,1′-biphenyl]-3-carboxamide] | 0.056 | 74
19 | C=CC(=O)N1CCN(C(C)=O)C[C@H]1c1cc(Cl)cc(-c2ncnc(N)n2)c1 (single isomer, unassigned) [Compound 74] | 0.022 | 89
20 | C=CC(=O)N1CC2(CC2)OCC1c1cc(Cl)cc(-c2ccc(F)c(C(N)=O)c2)c1 (single isomer, unassigned) [Compound 76, 3′-(7-acryloyl-4-oxa-7-azaspiro[2.5]octan-6-yl)-5′-chloro-4-fluoro-[1,1′-biphenyl]-3-carboxamide] | 0.024 | 90
21 | C=CC(=O)N1CCOCC1c1cc(Cl)cc(-c2nccc(C(N)=O)n2)c1 (single isomer, unassigned) [Compound 77, 2-(3-(4-acryloylmorpholin-3-yl)-5-chlorophenyl)pyrimidine-4-carboxamide] | 0.086 | 82
22 | C=CC(=O)N1CC(C)(C)OCC1c1cc(Cl)nc(-c2ccn3ccnc3c2)c1 (single isomer, unassigned) [Compound 78, 1-(5-(2-chloro-6-(imidazo[1,2-a]pyridin-7-yl)pyridin-4-yl)-2,2-dimethylmorpholino)prop-2-en-1-one] | 0.018 | 78
23 | C=CC(=O)N1CCN(C(C)=O)C[C@H]1c1cc(Cl)cc(-c2ccc(F)c(C(N)=O)c2)c1 (single isomer, unassigned) [Compound 79] | 0.018 | 85
24 | C=CC(=O)N1CCOC[C@H]1c1cc(Cl)cc(-c2cc(N)ncn2)c1 (single isomer, unassigned) [Compound 80] | 0.29 | 94
25 | C=CC(=O)N1CCN(C(C)=O)C[C@H]1c1cc(Cl)cc(-c2ccnc(N)n2)c1 (single isomer, unassigned) [Compound 81] | 0.012 | 85
26 | C=CC(=O)N1CCOC[C@H]1c1cc(Cl)cc(-c2ccc3c(c2)C(=O)NC3)c1 (single isomer, unassigned) [Compound 82] | < 0.01 | 77
27 | C=CC(=O)N1CC2(CC2)OCC1c1cc(Cl)cc(-c2ccnc(C)n2)c1 (single isomer, unassigned) [Compound 83, 1-(6-(3-chloro-5-(2-methylpyrimidin-4-yl)phenyl)-4-oxa-7-azaspiro[2.5]octan-7-yl)prop-2-en-1-one] | 0.089 | 86
28 | C=CC(=O)N1CC2(CC2)OCC1c1cc(Cl)cc(-c2ccnc(N)n2)c1 (single isomer, unassigned) [Compound 84, 1-(6-(3-(2-aminopyrimidin-4-y1)-5-chlorophenyl)-4-oxa-7-azaspiro[2.5]octan-7-yl)prop-2-en-1-one] | 0.047 | 93
29 | C=CC(=O)N1CCOCC1c1cc(Cl)cc(-c2cc(C(N)=O)n3ccnc3c2)c1 (single isomer, unassigned) [Compound 85, 7-(3-(4-acryloylmorpholin-3-yl)-5-chlorophenyl)imidazo[1,2-a]pyridine-5-carboxamide] | 0.036 | 89
30 | C=CC(=O)N1CCOC[C@H]1c1cc(Cl)cc(-c2cc(OC)ncn2)c1 (single isomer, unassigned) [Compound 86] | 0.0073 | 83
